# Experimental data from publication PMC9775191, “A Subset Screen of the Compounds Australia Scaffold Library Identifies 7-Acylaminodibenzoxazepinones as Potent and Selective Hits for Anti-Giardia Drug Discovery” (Biomedicines, 2022).
# System: G. duodenalis BRIS/91/HEPU/1279
# Assay: Primary Giardia screen at 10 µM (live-cell imaging, automated counting)
# Type: cell-based, Giardia duodenalis
# Details: for % Inhibition n=1 48h / % Inhibition n=1 24h: first singlicate assay; for % Inhibition n=2 24h / % Inhibition n=2 48h: re-assessment
# Outline: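 One concentration, 10 μM, is screened per compound in singlicate under microaerophilic gas (3% O2, 5% CO2, N2). Inhibition comes from automated image-based counts at 24 and 48 h, relative to 0.2% DMSO controls.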
Structure (SMILES),% Inhibition n=1 48h [%],other results
O=C(NCc1ccc2c(c1)CCN2C(=O)c1ccccc1)C1CCN(S(=O)(=O)N2CCCC2)CC1 [SN00793589],7.9,
O=C(C1CCN(S(=O)(=O)c2ccccc2)CC1)N1CC=C(c2ccccc2)CC1 [SN00769994],0.0,
CCN(CC)CCN1C(=O)C(O)=C(C(=O)c2cccs2)C1c1ccc(C)o1 (stereo not shown) [SN00776616],15.0,
Cc1noc(-c2c(C)sc(C)c2S(=O)(=O)NCc2ccccc2)c1C [SN00789144],30.5,
CC(C)n1nc2c(cc1=O)CN(Cc1nc(-c3ccoc3)no1)CC2 [SN00773517],10.7,
COC(=O)c1cc(C(=O)Nc2c3c(nn2C)CCC3)cc([N+](=O)[O-])c1 [SN00777586],12.1,
Cc1sc2cc(C(=O)N3CCN(c4ccc(F)cc4)CC3)[nH]c2c1CN1CCOCC1 [SN00798508],27.9,
O=S(=O)(c1cccc(F)c1)N1CC(OCc2cccc(F)c2)C1 [SN00792818],10.0,
COc1ccc(-c2nc(Cn3nnc(C(=O)Nc4ccc(F)cc4F)c3N)c(C)o2)c(OC)c1 [SN00797364],3.5,
COc1ccc(S(=O)(=O)N(C)c2ccsc2C(=O)NCCC(C)C)cc1 [SN00797030],10.4,
O=C(NCCc1ccccn1)c1ccc2[nH]c3c(c2c1)CN(C(=O)C1CCC1)CC3 [SN00798214],0.0,
CC1(C(=O)NCc2ccc(F)cc2)Cn2nc(-c3ccco3)cc2C(=O)N1Cc1ccccc1 (stereo not shown) [SN00787370],13.6,
Cc1nn(C)c(C)c1CC(C)NC(=O)NCC1CN2CCCC2CO1 (stereo not shown) [SN00783221],15.6,
Cc1cccc(OCC(=O)N2CCN(Cc3nnsc3Cl)CC2)c1C [SN00777844],35.2,
Cc1ccc(-c2cc(C(F)F)n3ncc(C(=O)NCc4cnn(C)c4C)c3n2)cc1 [SN00783829],0.0,
CC1CC(C)CN(CCCNC(=O)C2CC3CCCN3C23C(=O)Nc2ccccc23)C1 (stereo not shown) [SN00787674],38.8,
CCN1CCN(CCCNC(=O)c2cc3occc3c(Nc3ccc(OC)cc3)n2)CC1 [SN00790822],14.5,
Cc1csc(C2(NC(=O)Nc3ccc4c(c3)CCO4)CCC2)n1 [SN00772607],20.7,
CCOC(=O)Cc1ccc(NC(=O)N2CCC3(CC2)N=C(c2ccc(F)cc2)C(=O)N3)cc1 [SN00792712],14.3,
CCOC(=O)CCNC(=O)N1CCc2c(nc3cc(-c4ccccc4Cl)[nH]n3c2=O)C1 [SN00800844],13.6,
CC1Cc2ccccc2N1C(=O)c1cc(-c2cccnc2)[nH]n1 (stereo not shown) [SN00792679],19.0,
Cc1ccnc(N2CCCC(C(=O)N3CC=C(c4ccccc4)CC3)C2)n1 (stereo not shown) [SN00795039],57.6,Average % Inhibition 24h: 18.0%; % Inhibition n=1 24h: 29.9%; % Inhibition n=2 24h: 6.1%; Average % Inhibition 48h: 46.1%; % Inhibition n=2 48h: 34.6%
COc1ccc(C(=O)c2c(N)c(-c3nc(-c4cc(OC)ccc4OC)cs3)c3ccccn23)cc1 [SN00785721],0.0,
O=C1CC(C(=O)N2CCN(c3ccccc3)CC2)CN1CCc1ccccc1 (stereo not shown) [SN00800474],6.2,
CC1CC(C)CN(C(=O)Cn2cnc3c(nc4n3CCCCC4)c2=O)C1 (stereo not shown) [SN00788055],0.0,

Structure (SMILES),% Inhibition n=1 48h [%],other results
Cc1ccc(-c2nc(-c3cccc(-c4ccn[nH]4)c3)no2)cc1 [SN00798298],55.6,Average % Inhibition 24h: 6.3%; % Inhibition n=1 24h: 9.4%; % Inhibition n=2 24h: 3.2%; Average % Inhibition 48h: 41.5%; % Inhibition n=2 48h: 27.4%
COc1ccc(C2=Nc3ccccc3N(Cc3cccc(F)c3)C(=O)C2)cc1 [SN00791806],50.8,Average % Inhibition 24h: 8.7%; % Inhibition n=1 24h: 17.4%; % Inhibition n=2 24h: 0.0%; Average % Inhibition 48h: 30.2%; % Inhibition n=2 48h: 9.6%
CCCCN(CCCC)S(=O)(=O)c1ccc2c(c1)CCCC(=O)N2 [SN00788526],27.2,
Cc1csc(-n2nc(C)c(CC(=O)N3CCN(c4ccccc4)CC3)c2O)n1 [SN00786646],34.3,
O=c1[nH]c(CN2CCCCC2)nc2scc(-c3cccs3)c12 [SN00775605],0.0,
CN(C)c1ccc(NC(=O)C2=NN(Cc3ccc(F)cc3)C(=O)CC2)cc1 [SN00779392],8.0,
COc1cc(C(=O)NCC2(c3ccccc3)CCOCC2)cc(OC)c1OC [SN00783529],6.5,
CCn1cc2c(n1)-c1c(oc(C(=O)Nc3ccc(F)cc3)c1C)CC2 [SN00787412],6.9,
CCc1nnc(-c2cc3ccccc3n2CC(=O)N2CCCc3ccccc32)o1 [SN00789262],0.0,
COc1cccc(N2CCN(C(=O)c3ccc4noc(-c5ccccc5)c4c3)CC2)c1 [SN00777397],56.5,Average % Inhibition 24h: 9.9%; % Inhibition n=1 24h: 17.2%; % Inhibition n=2 24h: 2.5%; Average % Inhibition 48h: 28.2%; % Inhibition n=2 48h: 0.0%
CC(C)(C)NC(=O)c1cc(-c2cccnc2)[nH]n1 [SN00799308],15.5,
CC(C)(C)C(=O)N1CCC(C(=O)N2CC=C(c3ccc(F)cc3)CC2)CC1 [SN00770003],0.0,
COCCNC(=O)c1nc[nH]c1C(=O)NC(C)C [SN00786292],8.3,
Cc1nnc(NC(=O)c2ccc3c(=O)n4c(nc3c2)CCCCCC4)s1 [SN00777547],37.7,
Cc1cc2c(cc1C)N(CC(=O)NCc1cccs1)C(=O)C1CCCC1=N2 (stereo not shown) [SN00789389],11.1,
O=C(CSc1ccccc1)NCC1(N2CCCCC2)CCOCC1 [SN00807846],1.8,
CS(=O)(=O)N1CCCC1C(=O)OCc1cc(=O)n2c3c(sc2n1)CCCC3 (stereo not shown) [SN00775816],10.4,
CCc1cc(C2CCCN2C(=O)c2cnn3c(C(F)(F)F)cc(-c4cccs4)nc23)on1 (stereo not shown) [SN00793821],1.7,
O=C(Cc1ccccc1Cl)NCCc1noc(-c2ccccn2)n1 [SN00781138],21.7,
CCOCCCNC(=O)N1Cc2ccccc2-n2cccc2C1c1ccccc1 (stereo not shown) [SN00791279],0.0,
O=C(Nc1ccc(N2CCN(C3CCCCC3)C2=O)nc1)c1ccc(Cl)s1 [SN00801852],26.3,
CCN(Cc1ccccc1)C(=O)c1cc(-c2ccccc2)n[nH]1 [SN00788230],36.1,
Cc1c(C(=O)O)sc2ncnc(NC3CCCCCC3)c12 [SN00793181],3.6,
Cc1ccc(-c2nnc(-c3cccnc3N3CCCC3)o2)cc1 [SN00797693],0.0,
CC(=O)Nc1ccc(C(=O)OCc2cc(-c3cccs3)on2)s1 [SN00777515],14.0,

Structure (SMILES),% Inhibition n=1 48h [%],other results
CCCOc1ccc(-c2noc(Cc3nc(-c4cccc(OC)c4)cs3)n2)cc1 [SN00797723],4.6,
Cc1nc(-c2ccccc2)c(C(=O)N2CCCN(S(=O)(=O)c3ccc(F)cc3)CC2)s1 [SN00778504],9.7,
CC(=O)N1CCC2(CC1)OC(=O)C(C)=C2C(=O)NC1CC1 [SN00787857],0.0,
CC(=O)NCc1ccc(C(=O)N2CCCCC(N3CCCC3)C2)cc1 (stereo not shown) [SN00783239],4.5,
CN(C)CCCN1C(=O)C(O)=C(C(=O)c2cc(Cl)ccc2O)C1c1ccco1 (stereo not shown) [SN00776642],14.6,
CSc1ccc(CNC(=O)c2cn3cc(C)ccc3n2)cc1 [SN00799926],26.2,
Cc1cc(C2CCCN2Cc2sccc2C)on1 (stereo not shown) [SN00793909],2.5,
O=C(c1cc(CN2CCCC2)on1)N1CCN(C(=O)c2ccco2)CC1 [SN00791727],0.0,
CN1CCN(Cc2nc3ccccc3c(=O)n2Cc2nc(-c3cccc([N+](=O)[O-])c3)cs2)CC1 [SN00770541],11.4,
COc1ccccc1-c1cc(C(=O)N2CCCN(c3ccc(=O)n(-c4ccc(C)c(C)c4)n3)CC2)[nH]n1 [SN00791007],8.7,
CCC1CN2C=NC(N3CCN(C(=O)CCc4ccccc4OC)CC3)=CC2=N1 (stereo not shown) [SN00800900],25.4,
Cc1nc(-c2cccc(N3CC(C(=O)NCc4ccccc4)CC3=O)c2)no1 (stereo not shown) [SN00789781],0.0,
CCCNC(=O)c1sc(-n2nc(C)c(Cl)c2C)nc1C [SN00786172],52.5,Average % Inhibition 24h: 7.3%; % Inhibition n=1 24h: 14.5%; % Inhibition n=2 24h: 0.0%; Average % Inhibition 48h: 27.0%; % Inhibition n=2 48h: 1.5%
CCCNC(=O)c1cc(-c2ccc(F)cc2)on1 [SN00784460],0.0,
CC(=O)C1=C(C)NC(=O)NC1c1ccc(Cl)cc1 (stereo not shown) [SN00783317],2.8,
Cc1cccc(NC(=O)NC2CCN(c3nc(C)cc(C)n3)CC2)c1 [SN00786006],33.8,
CCC(=O)N1CCCc2ccc(NS(=O)(=O)c3ccc(F)c(C)c3)cc21 [SN00792263],17.5,
Cc1c(CN(C)C(=O)c2cc3nc(-c4cccs4)cc(C(F)(F)F)n3n2)cnn1C [SN00783696],0.0,
CCCCN(CC)CCNC(=O)C1=C(C)C(=O)OC12CCN(CC)CC2 [SN00787839],0.0,
CCn1nnc(NCc2ccc(-c3ccccc3)cc2)n1 [SN00786962],14.2,
O=C(NC1CCCCCC1)c1cc2cn(C3CC3)cc2s1 [SN00802023],43.4,Average % Inhibition 24h: 1.8%; % Inhibition n=1 24h: 3.6%; % Inhibition n=2 24h: 0.0%; Average % Inhibition 48h: 46.9%; % Inhibition n=2 48h: 50.4%
COc1ccccc1-c1nc(C2CCCN(C(=O)c3ccc(C(C)C)cc3)C2)no1 (stereo not shown) [SN00798647],0.0,
O=C(Nc1cccc(C(=O)N2CCC(N3CCCC3)C2)c1)c1ccco1 (stereo not shown) [SN00783226],0.0,
